IC50 data for 18 compounds are collected here from patent publication EP4737452A1, “NOVEL PYRIMIDINE DERIVATIVES” (Aigen Sciences Inc., priority 2023, dated 2025).

Read-outs that look alike come from different tables or passages of the source.

One experiment relates to MDA-MB-436. In words: Cell survival analysis (CellTiter-Glo, 10 days culture). Type of experiment: cell-based. Conditions: Homo sapiens, read-out: Cell growth IC50 grade. As to the method:
In this experimental example, the cell growth inhibitory effect of compounds according to the present invention and positive control compounds in tumor cell lines was examined.
MDA-MB-436 (ATCC, #HTB-130) cell line was cultured in cell culture medium (Leibovitz's L-15 (GIBCO catalog no. 11415064) + 10 µg/mL insulin (Yeasen catalog no. 40112ES25) + 16 µg/mL glutathione (GIBCO catalog no. 25030-081) + 10% fetal bovine serum (FBS) (Excell Bio catalog no. FSP500)). 3,000 MDA-MB-436 cells were plated per well in a 96-well plate and cultured for 1 day at 37°C in 5% CO2. […] The cells were then cultured in a cell incubator for 10 days, and the cell culture medium containing the compound was replaced on the 5th day of culture. Cell survival rate was analyzed for luminescence using the Promega CellTiter-Glo Luminescent Cell Viability Assay Kit (Promega catalog number G7573), and the luminescence was measured using a PerkinElmer EnVision instrument. The percentage of cell growth inhibition rate was calculated from the measured relative luminescence unit (RLU) as follows. Inhibition rate = 1−((RLU compound−RLU blank)/(RLU control−RLU blank)) × 100 [formula]

A further experiment addresses USP1 enzyme (Homo sapiens, UniProt O94782). Nature of the experiment: Biochemical analysis of USP1 enzyme activity (ubiquitin-rhodamine 110 deubiquitination, fluorescence). Conditions: ubiquitin-rhodamine 110 substrate, 10 minutes pre-incubation, 30 minutes reaction at room temperature; read-out: Enzyme activity IC50 grade. On the procedure:
In this experimental example, the inhibitory effect of the compounds according to the present invention and the positive control compound on USP1 deubiquitinating activity was tested using a biochemical enzymatic assay. Ubiquitin-rhodamine 110 was used as a substrate for measuring deubiquitinating activity. This substrate compound is a substance in which rhodamine 110 is linked to the glycine residue at the C-terminus of ubiquitin by an amide bond. When this amide bond is cleaved by the deubiquitinating activity, a fluorescent signal is counted.
Subsequently, analytical buffer solution (50 mM hydroxyethylpiperazineethanesulfonic acid (HEPES) containing USP1 enzyme, 100 mM NaCl, 2 mM tris(2-carboxyethyl)phosphine (TCEP), and 100 µg/mL bovine serum albumin (BSA)) were added to each well of the plate and incubated at room temperature for 10 minutes. Subsequently, analytical y buffer solution containing ubiquitin-rhodamine 110 was added to each well and reacted at room temperature for 30 minutes.

Setting [1] is: 240 h, MDA-MB-436 cell line, cultured for 10 days, CellTiter-Glo.

Sequence of USP1 enzyme (O94782 whole entry): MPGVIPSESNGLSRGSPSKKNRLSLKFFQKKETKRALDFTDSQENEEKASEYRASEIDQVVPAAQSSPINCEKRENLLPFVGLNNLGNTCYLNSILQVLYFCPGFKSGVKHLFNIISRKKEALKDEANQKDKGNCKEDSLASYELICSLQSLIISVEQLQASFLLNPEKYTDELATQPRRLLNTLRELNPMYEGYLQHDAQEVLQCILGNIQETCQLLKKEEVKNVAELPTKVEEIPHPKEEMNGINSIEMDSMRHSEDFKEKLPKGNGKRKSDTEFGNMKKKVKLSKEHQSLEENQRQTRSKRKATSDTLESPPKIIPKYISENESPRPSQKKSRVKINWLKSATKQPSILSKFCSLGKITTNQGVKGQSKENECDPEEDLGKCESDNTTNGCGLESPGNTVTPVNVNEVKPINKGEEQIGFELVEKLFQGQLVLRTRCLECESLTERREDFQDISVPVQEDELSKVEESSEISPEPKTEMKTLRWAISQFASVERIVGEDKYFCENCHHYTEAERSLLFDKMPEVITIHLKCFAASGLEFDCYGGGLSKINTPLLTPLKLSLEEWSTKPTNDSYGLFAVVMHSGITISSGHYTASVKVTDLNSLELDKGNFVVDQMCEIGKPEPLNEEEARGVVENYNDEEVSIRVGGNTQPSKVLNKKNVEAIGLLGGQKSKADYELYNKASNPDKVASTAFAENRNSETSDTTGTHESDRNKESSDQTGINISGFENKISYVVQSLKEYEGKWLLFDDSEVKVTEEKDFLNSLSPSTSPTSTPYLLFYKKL
Sequence of USP1 enzyme (Q8TAF3 whole entry partner): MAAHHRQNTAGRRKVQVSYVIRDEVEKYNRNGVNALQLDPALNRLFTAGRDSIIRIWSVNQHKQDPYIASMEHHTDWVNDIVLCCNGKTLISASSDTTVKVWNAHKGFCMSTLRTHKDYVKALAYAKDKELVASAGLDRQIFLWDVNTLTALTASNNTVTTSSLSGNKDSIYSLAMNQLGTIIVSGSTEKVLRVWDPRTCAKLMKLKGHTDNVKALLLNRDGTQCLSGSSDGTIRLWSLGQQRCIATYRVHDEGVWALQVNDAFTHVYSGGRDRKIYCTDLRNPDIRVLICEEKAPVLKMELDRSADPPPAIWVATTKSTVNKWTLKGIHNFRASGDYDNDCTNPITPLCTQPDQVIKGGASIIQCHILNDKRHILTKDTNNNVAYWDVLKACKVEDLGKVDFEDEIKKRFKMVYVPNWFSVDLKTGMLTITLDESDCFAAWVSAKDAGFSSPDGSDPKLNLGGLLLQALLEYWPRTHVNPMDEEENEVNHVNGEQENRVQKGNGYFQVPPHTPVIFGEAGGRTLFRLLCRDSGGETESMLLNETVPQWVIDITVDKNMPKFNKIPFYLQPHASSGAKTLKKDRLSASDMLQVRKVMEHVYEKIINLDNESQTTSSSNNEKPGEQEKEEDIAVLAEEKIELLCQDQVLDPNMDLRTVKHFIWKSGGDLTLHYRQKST

On to `Cc1cnc(-c2ccccc2C(C)C)nc1NCc1ccc(-n2ccnn2)cc1` [ML323, N-(4-(1H-1,2,3-triazol-1-yl)benzyl)-5-methyl-2-(2-isopropylphenyl)pyrimidin-4-amine, reference compound], for which the IC50 in the experiment with MDA-MB-436 (setting [1]) was above 500 nM.

Turning to `COc1ncnc(C2CC2)c1-c1ncc(P(C)(C)=O)c(NCc2ccc(-c3nc(C(F)(F)F)cn3C3CC3)cc2)n1` [Example 8, (4'-cyclopropyl-4-((4-(1-cyclopropyl-4-(trifluoromethyl)-1H-imidazol-2-yl)benzyl)amino)-6'-methoxy-[2,5'-bipyrimidine]-5-yl)dimethylphosphine oxide], the IC50 in the experiment on MDA-MB-436 (setting [1]) was below 100 nM; at USP1 enzyme, below 50 nM.

Turning to `COc1ncnc(C2CC2)c1-c1ncc(P(C)(C)=O)c(NCc2ccc(-n3nc(C(F)(F)F)cc3C(C)C)cc2)n1` [Example 15, (4'-cyclopropyl-4-((4-(5-isopropyl-3-(trifluoromethyl)-1H-pyrazole-1-yl)benzyl)amino)-6'-methoxy-[2,5'-bipyrimidine]-5-yl)dimethylphosphine oxide], the values for the IC50 in the experiment with MDA-MB-436 (setting [1]) and at USP1 enzyme were below 100 nM and below 50 nM, respectively.

As for `COc1ncnc(C2CC2)c1-c1ncc(P(C)(C)=O)c(NCC23CCC(c4nc(C(F)(F)F)cn4C)(CC2)CC3)n1` [Example 10, (4'-cyclopropyl-6'-methoxy-4-(((4-(1-methyl-4-(trifluoromethyl)-1H-imidazol-2-yl)bicyclo[2.2.2]octan-1-yl)methyl)amino)-[2,5'-bipyrimidine]-5-yl)dimethylphosphine oxide], the results for the IC50 in the experiment on MDA-MB-436 (setting [1]) and at USP1 enzyme were 100 to 500 nM and 50 to 100 nM, respectively.

Consider `COc1ncnc(C2CC2)c1-c1ncc(P(C)(C)=O)c(NCc2ccc(-n3nc(C(F)(F)F)cc3C3CC3)cc2)n1` [Example 17, (4'-cyclopropyl-4-((4-(5-cyclopropyl-3-(trifluoromethyl)-1H-pyrazole-1-yl)benzyl)amino)-6'-methoxy-[2,5'-bipyrimidine]-5-yl)dimethylphosphine oxide], for which the IC50 with MDA-MB-436 (setting [1]) is below 100 nM; at USP1 enzyme, below 50 nM.

In the case of `COc1ncnc(C2CC2)c1-c1ncc(P(C)(C)=O)c(NCc2ccc(-c3nc(C(F)(F)F)cn3C(C)C)cc2)n1` [Example 12, (4'-cyclopropyl-4-((4-(1-isopropyl-4-(trifluoromethyl)-1H-imidazol-2-yl)benzyl)amino)-6'-methoxy-[2,5'-bipyrimidine]-5-yl)dimethylphosphine oxide], the half-inhibitory concentration (IC50) is 100 to 500 nM in the experiment with MDA-MB-436 (setting [1]) and 50 to 100 nM on USP1 enzyme.

Turning to `COc1ncnc(C2CC2)c1-c1ncc(P(C)(C)=O)c(NCc2ccc(-n3nc(C(F)(F)F)cc3C3CC3)c(F)c2)n1` [Example 18, (4'-cyclopropyl-4-((4-(5-cyclopropyl-3-(trifluoromethyl)-1H-pyrazole-1-yl)-3-fluorobenzyl)amino)-6'-methoxy[2,5'-bipyrimidine]-5-yl)dimethylphosphine oxide], the 50% inhibitory concentration (IC50) with MDA-MB-436 (setting [1]) was below 100 nM; on USP1 enzyme, below 50 nM.

For the compound `COc1ncnc(C2CC2)c1-c1ncc(P(C)(C)=O)c(NCc2ccc(-c3nc(C(F)(F)F)cn3C)c(F)c2)n1` [Example 7, (4'-cyclopropyl-4-((3-fluoro-4-(1-methyl-4-(trifluoromethyl)-1H-imidazol-2-yl)benzyl)amino)-6'-methoxy-[2,5'-bipyrimidine]-5-yl)dimethylphosphine oxide], the results for the half-inhibitory concentration (IC50) with MDA-MB-436 (setting [1]) and at USP1 enzyme were below 100 nM and 50 to 100 nM, respectively.

For the compound `Cc1cnn(C(C)C)c1-c1ncc(P(C)(C)=O)c(NCc2ccc(-c3nc(C(F)(F)F)cn3C)cc2)n1` [Example 3, (2-(1-isopropyl-4-methyl-1H-pyrazole-5-yl)-4-((4-(1-methyl-4-(trifluoromethyl)-1H-imidazol-2-yl)benzyl)amino)pyrimidin-5-yl)dimethylphosphine oxide], the IC50 is above 500 nM in the experiment on MDA-MB-436 (setting [1]) and above 100 nM at USP1 enzyme.

`CC(C)c1ncccc1-c1ncc(P(C)(C)=O)c(NCc2ccc(-c3nc(C(F)(F)F)cn3C)cc2)n1` [Example 4, (2-(2-isopropylpyridine-3-yl)-4-((4-(1-methyl-4-(trifluoromethyl)-1H-imidazol-2-yl)benzyl)amino)pyrimidin-5-yl)dimethylphosphine oxide]: the half-inhibitory concentration (IC50) is 100 to 500 nM with MDA-MB-436 (setting [1]) and above 100 nM on USP1 enzyme.

As to `COc1ncnc(C2CC2)c1-c1ncc(P(C)(C)=O)c(NCc2ccc(-c3nc(C(F)(F)F)cn3C(C)C)c(F)c2)n1` [Example 13, (4'-cyclopropyl-4-((3-fluoro-4-(1-isopropyl-4-(trifluoromethyl)-1H-imidazol-2-yl)benzyl)amino)-6'-methoxy-[2,5'-bipyrimidine]-5-yl)dimethylphosphine oxide], the values for the half-maximal inhibitory concentration (IC50) with MDA-MB-436 (setting [1]) and on USP1 enzyme were below 100 nM and below 50 nM, respectively.

As for `COc1ncnc(C2CC2)c1-c1ncc(P(C)(C)=O)c(NCc2ccc(-n3nc(C(F)(F)F)cc3C)cc2)n1` [Example 9, (4'-cyclopropyl-6'-methoxy-4-((4-(5-methyl-3-(trifluoromethyl)-1H-pyrazole-1-yl)benzyl)amino)-[2,5'-bipyrimidine]-5-yl)dimethylphosphine oxide], the IC50 in the experiment on MDA-MB-436 (setting [1]) is below 100 nM; on USP1 enzyme, below 50 nM.

As for `COc1ncnc(C2CC2)c1-c1ncc(P(C)(C)=O)c(NCc2ccc(-n3nc(C(F)(F)F)cc3C)c(F)c2)n1` [Example 14, (4'-cyclopropyl-4-((3-fluoro-4-(5-methyl-3-(trifluoromethyl)-1H-pyrazole-1-yl)benzyl)amino)-6'-methoxy-[2,5'-bipyrimidine]-5-yl)dimethylphosphine oxide], the concentration for half-maximal inhibition (IC50) in the experiment on MDA-MB-436 (setting [1]) is below 100 nM; at USP1 enzyme, below 50 nM.

Turning to `[2H]C([2H])([2H])Oc1ncnc(C2CC2)c1-c1ncc(P(C)(C)=O)c(NCc2ccc(-c3nc(C(F)(F)F)cn3C)cc2)n1` [Example 5, (4'-cyclopropyl-6'-(methoxy-d3)-4-((4-(1-methyl-4-(trifluoromethyl)-1H-imidazol-2-yl)benzyl)amino)-[2,5'-bipyrimidine]-5-yl)dimethylphosphine oxide], the concentration for half-maximal inhibition (IC50) fell in the range of 100 to 500 nM in the experiment on MDA-MB-436 (setting [1]) and 50 to 100 nM on USP1 enzyme.

With `COc1ncnc(C2CC2)c1-c1ncc(P(C)(C)=O)c(NCc2ccc(-n3nc(C(F)(F)F)cc3C(C)C)c(F)c2)n1` [Example 16, (4'-cyclopropyl-4-((3-fluoro-4-(5-isopropyl-3-(trifluoromethyl)-1H-pyrazol-1-yl)benzyl)amino)-6'-methoxy-[2,5'-bipyrimidine]-5-yl)dimethylphosphine oxide], the half-maximal inhibitory concentration (IC50) in the experiment on MDA-MB-436 (setting [1]) was below 100 nM; on USP1 enzyme, below 50 nM.

In the case of `COc1ncnc(C2CC2)c1-c1ncc(P(C)(C)=O)c(NCC23C4C5C2C2C3C4C52c2nc(C(F)(F)F)cn2C)n1` [Example 11, (4'-cyclopropyl-6'-methoxy-4-((((1s,2R,3s,4r,5S,6r,7R,8S)-4-(1-methyl-4-(trifluoromethyl)-1H-imidazol-2-yl)cuban-1-yl)methyl)amino)-[2,5'-bipyrimidine]-5-yl)dimethylphosphine oxide], the half-maximal inhibitory concentration (IC50) is below 100 nM in the experiment with MDA-MB-436 (MDA-MB-436, 240 h) and below 50 nM on USP1 enzyme.

As for `Cn1cc(C(F)(F)F)nc1-c1ccc(CNc2nc(-c3cccnc3OC(F)F)ncc2P(C)(C)=O)cc1` [Example 6, (2-(2-(difluoromethoxy)pyridin-3-yl)-4-((4-(1-methyl-4-(trifluoromethyl)-1H-imidazol-2-yl)benzyl)amino)pyrimidin-5-yl)dimethylphosphine oxide], the concentration for half-maximal inhibition (IC50) with MDA-MB-436 (setting [1]) was 100 to 500 nM; at USP1 enzyme, above 100 nM.

On to `COc1ncnc(C2CC2)c1-c1ncc(P(C)(C)=O)c(NCc2ccc(-c3nc(C(F)(F)F)cn3C)cc2)n1` [Example 2, (4'-cyclopropyl-6'-methoxy-4-((4-(1-methyl-4-(trifluoromethyl)-1H-imidazol-2-yl)benzyl)amino)-[2,5'-bipyrimidine]-5-yl)dimethylphosphine oxide], for which the results for the IC50 in the experiment with MDA-MB-436 (setting [1]) and on USP1 enzyme were 100 to 500 nM and 50 to 100 nM, respectively.
